Data reported in patent publication US20240116892A1, “HETEROCYCLIC AMIDE AND UREA COMPOUNDS AS JAK2 INHIBITORS” (Ajax Therapeutics, Inc., priority 2022, published 2024).

Biological target: JAK2 (JH1 domain-catalytic, Y1007F, Y1008F) kinase (Homo sapiens (Human), UniProt O60674, Y1007F/Y1008F)
Assay: JAK2 JH1 Domain Binding Assay
Conditions: qPCR readout
Protocol: JAK2 (JH1 domain-catalytic, Y1007F, Y1008F) kinase was expressed as N-terminal fusion to the DNA binding domain of NFkB in transiently transfected HEK293 cells and subsequently tagged with DNA for qPCR detection. Streptavidin-coated magnetic beads were treated with biotinylated small molecule ligands for 30 minutes at room temperature to generate affinity resins for kinase assays. The liganded beads were blocked with excess biotin and washed with blocking buffer (SeaBlock (Pierce), 1% BSA, 0.05% Tween 20, 1 mmol/L DTT) to remove unbound ligand and to reduce nonspecific phage binding. Binding reactions were assembled by combining kinases, liganded affinity beads, and test compounds in 1× binding buffer (1× PBS, 0.05% Tween 20, 0.1% BSA, 1 mmol/L DTT). Test compound was prepared as 111× stocks in 100% DMSO and directly diluted into the assay wells. All reactions were performed in polypropylene 384-well plates in a final volume of 0.02 mL. The assay plates were incubated at room temperature with shaking for 1 hour and the affinity beads were washed with wash buffer (1× PBS, 0.05% Tween 20). The beads were then re-suspended in elution buffer (1× PBS, 0.05% Tween 20, 0.5 μmol/L non-biotinylated affinity ligand) and incubated at room temperature with shaking for 30 minutes. The kinase concentration in the eluate was measured by qPCR.

Chain of JAK2 (JH1 domain-catalytic, Y1007F, Y1008F) kinase (O60674 849-1124 Y1007F/Y1008F): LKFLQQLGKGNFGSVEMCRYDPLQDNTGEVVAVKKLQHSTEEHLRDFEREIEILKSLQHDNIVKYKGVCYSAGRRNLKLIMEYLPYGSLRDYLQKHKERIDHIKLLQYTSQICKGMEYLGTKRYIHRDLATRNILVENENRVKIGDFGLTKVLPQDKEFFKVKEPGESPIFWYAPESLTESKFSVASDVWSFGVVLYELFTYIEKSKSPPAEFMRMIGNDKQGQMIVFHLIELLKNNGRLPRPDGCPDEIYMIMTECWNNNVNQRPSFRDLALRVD

| Compound | Kd |
| --- | --- |
| 1-(1-(3-((1R,2R)-2-hydroxycyclobutoxy)-1H-pyrazolo[3,4-b]pyridin-5-yl)piperidin-4-yl)-1-methyl-3-(1-methyl-2-oxo-5-(trifluoromethyl)-1,2-dihydropyridin-3-yl)urea and 1-(1-(3-((1S,2S)-2-hydroxycyclobutoxy)-1H-pyrazolo[3,4-b]pyridin-5-yl)piperidin-4-yl)-1-methyl-3-(1-methyl-2-oxo-5-(trifluoromethyl)-1,2-dihydropyridin-3-yl)urea [Example I-184-a] | 50 to 1000 nM |
| 1-(1-(3-((1R,2R)-2-hydroxycyclobutoxy)-1H-pyrazolo[3,4-b]pyridin-5-yl)piperidin-4-yl)-1-methyl-3-(1-methyl-2-oxo-5-(trifluoromethyl)-1,2-dihydropyridin-3-yl)urea and 1-(1-(3-((1S,2S)-2-hydroxycyclobutoxy)-1H-pyrazolo[3,4-b]pyridin-5-yl)piperidin-4-yl)-1-methyl-3-(1-methyl-2-oxo-5-(trifluoromethyl)-1,2-dihydropyridin-3-yl)urea [Example I-184-b] | 1000 to 5000 nM |
| CN(C(=O)Nc1cc(C(F)(F)F)ccn1)[C@@H]1CCN(c2cnc3[nH]ncc3c2)CC1(F)F (mixture of isomers) [Example I-146-a, (R)-1-(3,3-difluoro-1-(1H-pyrazolo[3,4-b]pyridin-5-yl)piperidin-4-yl)-1-methyl-3-(4-(trifluoromethyl)pyridin-2-yl)urea and (S)-1-(3,3-difluoro-1-(1H-pyrazolo[3,4-b]pyridin-5-yl)piperidin-4-yl)-1-methyl-3-(4-(trifluoromethyl)pyridin-2-yl)urea] | < 10 nM |
| CN(C(=O)Nc1cc(C(F)(F)F)ccn1)[C@H]1CCN(c2cnc3[nH]ncc3c2)CC1(F)F (mixture of isomers) [Example I-146-b, (R)-1-(3,3-difluoro-1-(1H-pyrazolo[3,4-b]pyridin-5-yl)piperidin-4-yl)-1-methyl-3-(4-(trifluoromethyl)pyridin-2-yl)urea and (S)-1-(3,3-difluoro-1-(1H-pyrazolo[3,4-b]pyridin-5-yl)piperidin-4-yl)-1-methyl-3-(4-(trifluoromethyl)pyridin-2-yl)urea] | < 10 nM |
| CN(C(=O)Nc1cncc(C(F)(F)F)c1)[C@@H]1CCN(c2cnc3[nH]ncc3c2)CC1(F)F.CN(C(=O)Nc1cncc(C(F)(F)F)c1)[C@H]1CCN(c2cnc3[nH]ncc3c2)CC1(F)F (mixture of isomers) [Example I-147-a, (R)-1-(3,3-difluoro-1-(1H-pyrazolo[3,4-b]pyridin-5-yl)piperidin-4-yl)-1-methyl-3-(5-(trifluoromethyl)pyridin-3-yl)urea and (S)-1-(3,3-difluoro-1-(1H-pyrazolo[3,4-b]pyridin-5-yl)piperidin-4-yl)-1-methyl-3-(5-(trifluoromethyl)pyridin-3-yl)urea] | < 10 nM |
| CN(C(=O)Nc1cc(C(F)(F)F)cn(C)c1=O)[C@@H]1CC=C(c2cnc3[nH]cc(N4CCOCC4)c3n2)CC1.CN(C(=O)Nc1cc(C(F)(F)F)cn(C)c1=O)[C@H]1CC=C(c2cnc3[nH]cc(N4CCOCC4)c3n2)CC1 (mixture of isomers) [Example I-165-a, (S)-1-methyl-3-(1-methyl-2-oxo-5-(trifluoromethyl)-1,2-dihydropyridin-3-yl)-1-(4-(7-morpholino-5H-pyrrolo[2,3-b]pyrazin-2-yl)cyclohex-3-en-1-yl)urea and (R)-1-methyl-3-(1-methyl-2-oxo-5-(trifluoromethyl)-1,2-dihydropyridin-3-yl)-1-(4-(7-morpholino-5H-pyrrolo[2,3-b]pyrazin-2-yl)cyclohex-3-en-1-yl)urea] | < 10 nM |
| CN(C(=O)Nc1cc(C(F)(F)F)cn(C)c1=O)C12CC(c3cnc4[nH]nc(OC5CCOC5)c4c3)(C1)C2 (mixture of isomers) [Example I-166, (S)-1-methyl-3-(1-methyl-2-oxo-5-(trifluoromethyl)-1,2-dihydropyridin-3-yl)-1-(3-(3-((tetrahydrofuran-3-yl)oxy)-1H-pyrazolo[3,4-b]pyridin-5-yl)bicyclo[1.1.1]pentan-1-yl)urea and (R)-1-methyl-3-(1-methyl-2-oxo-5-(trifluoromethyl)-1,2-dihydropyridin-3-yl)-1-(3-(3-((tetrahydrofuran-3-yl)oxy)-1H-pyrazolo[3,4-b]pyridin-5-yl)bicyclo[1.1.1]pentan-1-yl)urea] | < 10 nM |
| CN(C(=O)Nc1cc(C(F)(F)F)cn(C)c1=O)[C@@H]1CCN(c2cnc3[nH]ncc3c2)C[C@H]1OC(F)F.CN(C(=O)Nc1cc(C(F)(F)F)cn(C)c1=O)[C@H]1CCN(c2cnc3[nH]ncc3c2)C[C@@H]1OC(F)F (mixture of isomers) [Example I-167-a, 1-((3S,4S)-3-(difluoromethoxy)-1-(1H-pyrazolo[3,4-b]pyridin-5-yl)piperidin-4-yl)-1-methyl-3-(1-methyl-2-oxo-5-(trifluoromethyl)-1,2-dihydropyridin-3-yl)urea and 1-((3R,4R)-3-(difluoromethoxy)-1-(1H-pyrazolo[3,4-b]pyridin-5-yl)piperidin-4-yl)-1-methyl-3-(1-methyl-2-oxo-5-(trifluoromethyl)-1,2-dihydropyridin-3-yl)urea] | 50 to 1000 nM |
| CC(=O)Nc1c[nH]c2ncc(N3CC[C@@H](N(C)C(=O)Nc4cc(C(F)(F)F)cn(C)c4=O)C(F)(F)C3)cc12 (mixture of isomers) [Example I-172-a, (R)—N-(5-(3,3-difluoro-4-(1-methyl-3-(1-methyl-2-oxo-5-(trifluoromethyl)-1,2-dihydropyridin-3-yl)ureido)piperidin-1-yl)-1H-pyrrolo[2,3-b]pyridin-3-yl)acetamide and (S)—N-(5-(3,3-difluoro-4-(1-methyl-3-(1-methyl-2-oxo-5-(trifluoromethyl)-1,2-dihydropyridin-3-yl)ureido)piperidin-1-yl)-1H-pyrrolo[2,3-b]pyridin-3-yl)acetamide] | < 10 nM |
| CC(=O)Nc1c[nH]c2ncc(N3CC[C@H](N(C)C(=O)Nc4cc(C(F)(F)F)cn(C)c4=O)C(F)(F)C3)cc12 (mixture of isomers) [Example I-172-b, (R)—N-(5-(3,3-difluoro-4-(1-methyl-3-(1-methyl-2-oxo-5-(trifluoromethyl)-1,2-dihydropyridin-3-yl)ureido)piperidin-1-yl)-1H-pyrrolo[2,3-b]pyridin-3-yl)acetamide and (S)—N-(5-(3,3-difluoro-4-(1-methyl-3-(1-methyl-2-oxo-5-(trifluoromethyl)-1,2-dihydropyridin-3-yl)ureido)piperidin-1-yl)-1H-pyrrolo[2,3-b]pyridin-3-yl)acetamide] | < 10 nM |
| CN(C(=O)Nc1cc(C(F)(F)F)cn(C)c1=O)[C@@H]1CCN(c2cnccn2)CC1(F)F (single isomer, unassigned) [Example I-22-a] | 10 to 50 nM |
| CN(C(=O)Nc1cc(C(F)(F)F)cn(C)c1=O)[C@H]1CCN(c2cnccn2)CC1(F)F (single isomer, unassigned) [Example I-22-b] | 10 to 50 nM |
| CN(C(=O)Nc1cc(C(F)(F)F)cn(C)c1=O)[C@@H]1CCN(c2cnc3[nH]ccc3n2)CC1(F)F (single isomer, unassigned) [Example I-27-a] | < 10 nM |
| CN(C(=O)Nc1cc(C(F)(F)F)cn(C)c1=O)[C@H]1CCN(c2cnc3[nH]ccc3n2)CC1(F)F (single isomer, unassigned) [Example I-27-b] | < 10 nM |
